The conditions of the series: 101.33 kPa, Liquid, Vibrating tube method.

Numbers after ± are expanded uncertainties.

For `CCCCn1cc[n+](C)c1.F[P-](F)(F)(F)(F)F` [1-butyl-3-methylimidazolium hexafluorophosphate], the mass density (298.15 K) was determined as 1369.9 ± 18 kg/m3, the mass density (313.15 K) amounted to 1350.4 ± 26 kg/m3, the mass density (333.15 K) is 1325.2 ± 21 kg/m3 and the mass density (353.15 K) came out at 1288.4 ± 39 kg/m3.
In the same order, the values of `CCOS(=O)(=O)[O-].CCn1cc[n+](C)c1` [1-ethyl-3-methylimidazolium ethyl sulfate] are 1234.1 ± 18 kg/m3, 1219.1 ± 18 kg/m3, 1199.1 ± 27 kg/m3 and 1170.4 ± 39 kg/m3.

The record behind these values is the NIST ThermoML archive (doi:10.1021/acs.jced.6b00751).
